Results as given in patent publication US8124793B2, “Derivatives of ethylene methanedisulfonate as cancer chemotherapeutic agents” (priority 2007, dated 2012).

Key:
Format in all cases: cell-based
LXFL529 = assay: NCI screen, growth of human tumor cells: Non-Small Cell Lung Cancer LXFL529
IGROVI = assay: NCI screen, growth of human tumor cells: Ovarian Cancer IGROVI; conditions: IGROVI (Ovarian Cancer), 10^−4 molar
Method in brief: (§1)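 Growth of human tumor cells, expressed as percent, was determined in the NCI screen. Test data list the cancer type and the molar concentration applied.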

NCI-H522 = assay: NCI screen, growth of human tumor cells: Non-Small Cell Lung NCI-H522; conditions: NCI-H522 (Non-Small Cell Lung), 10^−4 molar
Method in brief: as §1

DMS114 = assay: NCI screen, growth of human tumor cells: Small Cell Lung Cancer DMS114; conditions: 10^−4 molar
Description: (§2) The compounds listed in Section II are arranged by their NSC number followed by the percent of growth of human tumor cells when the compound is administrated at 10^−4 molar concentration.
(§3) In the NCI screening process, each compound was tested and described by a minimum of 60 data points. The test data include, but are not limited to the type of cancer, the molar concentration used in the screen, and the percent growth of the cancer. In some cases, NMR and elemental analysis were used for structural assignment.

SK-MEL-5 = assay: NCI screen, growth of human tumor cells: Melanoma SK-MEL-5; conditions: SK-MEL-5, 10^−4 molar
Method in brief: as §1

SR = assay: NCI screen, growth of human tumor cells: Leukemia SR; conditions: SR
Method in brief: as §1

RPMI-8226 = assay: NCI screen, growth of human tumor cells: Leukemia RPMI-8226
Method in brief: as §1

SNB-78 = assay: NCI screen, growth of human tumor cells: CNS Cancer SNB-78; conditions: SNB-78 (CNS Cancer), 10^−4 molar
Description: as §2, §3

786-0 = assay: NCI screen, growth of human tumor cells: Renal Cancer 786-0; conditions: 786-0, 10^−4 molar
Method in brief: as §1

SNB-75 = assay: NCI screen, growth of human tumor cells: CNS Cancer SNB-75; conditions: SNB-75 (CNS Cancer), 10^−4 molar
Method in brief: as §1

DMS273 = assay: NCI screen, growth of human tumor cells: Small Cell Lung Cancer DMS273; conditions: 10^−4 molar
Description: as §2, §3

SK-MEL-28 = assay: NCI screen, growth of human tumor cells: Melanoma SK-MEL-28; conditions: SK-MEL-28 (Melanoma), 10^−4 molar
Method in brief: as §1

NCI-H226 = assay: NCI screen, growth of human tumor cells: Non-Small Cell Lung NCI-H226; conditions: NCI-H226, 10^−4 molar
Method in brief: as §1

HCC-2998 = assay: NCI screen, growth of human tumor cells: HCC-2998 (listed under Non-Small Cell Lung); conditions: HCC-2998, 10^−4 molar
Method in brief: as §1

HCT-116 = assay: NCI screen, growth of human tumor cells: Colon Cancer HCT-116; conditions: HCT-116, 10^−4 molar
Method in brief: as §1

HOP-62 = assay: NCI screen, growth of human tumor cells: Non-Small Cell Lung HOP-62; conditions: HOP-62, 10^−4 molar
Method in brief: as §1

KM12 = assay: NCI screen, growth of human tumor cells: Colon Cancer KM12; conditions: KM12 (Colon Cancer), 10^−4 molar
Method in brief: as §1

XF 498 = assay: NCI screen, growth of human tumor cells: CNS Cancer XF 498; conditions: XF 498 (CNS Cancer), 10^−4 molar
Description: as §2, §3

LOXIMVI = assay: NCI screen, growth of human tumor cells: Melanoma LOXIMVI; conditions: LOXIMVI, 10^−4 molar
Method in brief: as §1

UO-31 = assay: NCI screen, growth of human tumor cells: Renal Cancer UO-31; conditions: UO-31, 10^−4 molar
Method in brief: as §1

OVCAR-3 = assay: NCI screen, growth of human tumor cells: Ovarian Cancer OVCAR-3; conditions: OVCAR-3 (Ovarian Cancer), 10^−4 molar
Method in brief: as §1

HOP-92 = assay: NCI screen, growth of human tumor cells: Non-Small Cell Lung HOP-92; conditions: HOP-92, 10^−4 molar
Method in brief: as §1

OVCAR-4 = assay: NCI screen, growth of human tumor cells: Ovarian Cancer OVCAR-4; conditions: OVCAR-4 (Ovarian Cancer), 10^−4 molar
Method in brief: as §1

MOLT-4 = assay: NCI screen, growth of human tumor cells: Leukemia MOLT-4; conditions: MOLT-4 (Leukemia), 10^−4 molar
Method in brief: as §1

SW620 = assay: NCI screen, growth of human tumor cells: Colon Cancer SW620; conditions: SW620, 10^−4 molar
Method in brief: as §1

OVCAR-8 = assay: NCI screen, growth of human tumor cells: Ovarian Cancer OVCAR-8; conditions: OVCAR-8 (Ovarian Cancer), 10^−4 molar
Method in brief: as §1

RXF-631 = assay: NCI screen, growth of human tumor cells: Renal Cancer RXF-631; conditions: RXF-631 (Renal Cancer), 10^−4 molar
Description: as §2, §3

SK-MEL-2 = assay: NCI screen, growth of human tumor cells: Melanoma SK-MEL-2; conditions: SK-MEL-2, 10^−4 molar
Method in brief: as §1

SN12C = assay: NCI screen, growth of human tumor cells: Renal Cancer SN12C; conditions: SN12C (Renal Cancer), 10^−4 molar
Method in brief: as §1

SF-295 = assay: NCI screen, growth of human tumor cells: CNS Cancer SF-295; conditions: SF-295 (CNS Cancer), 10^−4 molar
Method in brief: as §1

A498 = assay: NCI screen, growth of human tumor cells: Renal Cancer A498; conditions: A498, 10^−4 molar
TK-10 = assay: NCI screen, growth of human tumor cells: Renal Cancer TK-10; conditions: TK-10 (Renal Cancer), 10^−4 molar
Description: as §3

NCI-H23 = assay: NCI screen, growth of human tumor cells: Non-Small Cell Lung NCI-H23
Method in brief: as §1

EKVX = assay: NCI screen, growth of human tumor cells: Non-Small Cell Lung EKVX; conditions: EKVX (Non-Small Cell Lung), 10^−4 molar
Method in brief: as §1

SF-539 = assay: NCI screen, growth of human tumor cells: CNS Cancer SF-539; conditions: SF-539 (CNS Cancer), 10^−4 molar
Method in brief: as §1

HT29 = assay: NCI screen, growth of human tumor cells: Colon Cancer HT29; conditions: HT29 (Colon Cancer), 10^−4 molar
Method in brief: as §1

CCRF-CEM = assay: NCI screen, growth of human tumor cells: Leukemia CCRF-CEM; conditions: CCRF-CEM
Method in brief: as §1

UACC-62 = assay: NCI screen, growth of human tumor cells: Melanoma UACC-62; conditions: UACC-62, 10^−4 molar
Method in brief: as §1

AS49/ATCC = assay: NCI screen, growth of human tumor cells: Non-Small Cell Lung AS49/ATCC; conditions: AS49/ATCC (Non-Small Cell Lung), 10^−4 molar
Method in brief: as §1

COLO205 = assay: NCI screen, growth of human tumor cells: Colon Cancer COLO205; conditions: COLO205, 10^−4 molar
Method in brief: as §1

SF-268 = assay: NCI screen, growth of human tumor cells: CNS Cancer SF-268; conditions: SF-268 (CNS Cancer), 10^−4 molar
Method in brief: as §1

UACC-257 = assay: NCI screen, growth of human tumor cells: Melanoma UACC-257; conditions: UACC-257 (Melanoma), 10^−4 molar
Method in brief: as §1

SK-OV-3 = assay: NCI screen, growth of human tumor cells: Ovarian Cancer SK-OV-3; conditions: SK-OV-3 (Ovarian Cancer), 10^−4 molar
Method in brief: as §1

CAKI-1 = assay: NCI screen, growth of human tumor cells: Renal Cancer CAKI-1; conditions: CAKI-1, 10^−4 molar
Method in brief: as §1

NCI-H322M = assay: NCI screen, growth of human tumor cells: Non-Small Cell Lung NCI-H322M; conditions: NCI-H322M (Non-Small Cell Lung), 10^−4 molar
Method in brief: as §1

HL-60 (TB) = assay: NCI screen, growth of human tumor cells: Leukemia HL-60 (TB); conditions: HL-60 (TB) (Leukemia), 10^−4 molar
Description: as §3

MALME-3M = assay: NCI screen, growth of human tumor cells: Melanoma MALME-3M; conditions: MALME-3M, 10^−4 molar
Method in brief: as §1

K562 = assay: NCI screen, growth of human tumor cells: Leukemia K562; conditions: K562 (Leukemia), 10^−4 molar
Method in brief: as §1

**Q.** What does the source list for O=S1(=O)OCCOS(=O)(=O)C1(I)I [NSC 648308, ethylene diiodomethanedisulfonate]?
**A.** % Growth (LXFL529; LXFL529, 10^−4 molar): −72%; % Growth (LXFL529; LXFL529, 10^−5 molar): 55%; percent of growth of human tumor cells (IGROVI): −24%; percent of growth of human tumor cells (NCI-H522): −45%; percent of growth of human tumor cells (DMS114): −46%; % Growth (SK-MEL-5): −91%; % Growth (SR; 10^−4 molar): −37%; % Growth (SR; 10^−5 molar): 48%; % Growth (RPMI-8226; RPMI-8226, 10^−4 molar): −37%; % Growth (RPMI-8226; RPMI-8226, 10^−5 molar): 48%; percent of growth of human tumor cells (SNB-78): −6%; % Growth (786-0): −95%; percent of growth of human tumor cells (SNB-75): −36%; percent of growth of human tumor cells (DMS273): −45%; percent of growth of human tumor cells (SK-MEL-28): −29%; % Growth (NCI-H226): −91%; % Growth (HCC-2998): −99%; % Growth (HCT-116): −100%; % Growth (HOP-62): −69%; percent of growth of human tumor cells (KM12): −58%; percent of growth of human tumor cells (XF 498): −67%; % Growth (LOXIMVI): −93%; % Growth (UO-31): −95%; percent of growth of human tumor cells (OVCAR-3): −14%; % Growth (HOP-92): −78%; percent of growth of human tumor cells (OVCAR-4): −39%; percent of growth of human tumor cells (MOLT-4): −22%; % Growth (SW620): −55%; percent of growth of human tumor cells (OVCAR-8): −25%; percent of growth of human tumor cells (RXF-631): −44%; % Growth (SK-MEL-2): −80%; percent of growth of human tumor cells (SN12C): −61%; percent of growth of human tumor cells (SF-295): −4%; % Growth (A498): −100%; percent of growth of human tumor cells (TK-10): −19%; % Growth (NCI-H23; NCI-H23, 10^−4 molar): −70%; % Growth (NCI-H23; NCI-H23, 10^−5 molar): 56%; percent of growth of human tumor cells (EKVX): −35%; percent of growth of human tumor cells (SF-539): −25%; percent of growth of human tumor cells (HT29): −18%; % Growth (CCRF-CEM; 10^−4 molar): −44%; % Growth (CCRF-CEM; 10^−5 molar): 55%; % Growth (UACC-62): −82%; percent of growth of human tumor cells (AS49/ATCC): −17%; % Growth (COLO205): −61%; percent of growth of human tumor cells (SF-268): −11%; percent of growth of human tumor cells (UACC-257): −54%; percent of growth of human tumor cells (SK-OV-3): −49%; % Growth (CAKI-1): −71%; percent of growth of human tumor cells (NCI-H322M): −45%; percent of growth of human tumor cells (HL-60 (TB)): −16%; % Growth (MALME-3M): −80%; percent of growth of human tumor cells (K562): −16%
